Earlier results, collected in US7795231B2, “Concentrated aqueous azalide formulations” (Insite Vision Incorporated, priority 2007, dated 2010).
Where a name gives a salt, the structure may show the parent alone.

water solubility (in words): good water solubility
Structure (SMILES): CC[C@H]1OC(=O)[C@H](C)[C@@H](O[C@H]2C[C@@](C)(OC)[C@@H](O)[C@H](C)O2)[C@H](C)[C@@H](O[C@@H]2O[C@H](C)C[C@H](N(C)C)[C@H]2O)[C@](C)(O)C[C@@H](C)CN(C)[C@H](C)[C@@H](O)[C@]1(C)O [azithromycin dihydrochloride]
